From ChEMBL document CHEMBL1151449, “In vitro activity of DC-159a, a new broad-spectrum fluoroquinolone, compared with that of other agents against drug-susceptible and -resistant pneumococci” (2008)
Converted amounts (≈) assume the structure as drawn.

Assays:
Assay type in all cases: functional
Streptococcus pneumoniae [1] = assay: Antibacterial activity against Streptococcus pneumoniae HMC 2536 harboring S81Y mutation in quinolone-resistant determining regions of GyrA gene, S79F, K137N mutation in QRDR of ParC gene and I460V mutation in QRDR of ParE gene by agar dilution method
Streptococcus pneumoniae [2] = assay: Antibacterial activity against Streptococcus pneumoniae HMC 1147 harboring S81F mutation in quinolone-resistant determining regions of GyrA gene, S79F mutation in QRDR of ParC gene and I460V mutation in QRDR of ParE gene showing efflux to gemifloxacin by agar dilution method
Streptococcus pneumoniae [3] = assay: Antibacterial activity against Streptococcus pneumoniae HMC 4026 harboring S81Y mutation in quinolone-resistant determining regions of GyrA gene, S79F, K137N mutation in QRDR of ParC gene and I460V mutation in QRDR of ParE gene by agar dilution method
Streptococcus pneumoniae [4] = assay: (§1) Antibacterial activity against penicillin-susceptible, quinolone-resistant Streptococcus pneumoniae HMC 1072 expressing ermB and harboring S81F mutation in quinolone-resistant determining regions of GyrA gene, S79Y mutation in QRDR of ParC gene and I460V mutation in QRDR of ParE gene after 50 passages by broth microdilution method
Streptococcus pneumoniae [5] = assay: Antibacterial activity against quinolone-susceptible and penicillin-intermediate Streptococcus pneumoniae HMC 5048 expressing mefA by broth microdilution method
Streptococcus pneumoniae [6] = assay: Antibacterial activity against Streptococcus pneumoniae HMC 1068 harboring E85K mutation in quinolone-resistant determining regions of GyrA gene, S79Y, K137N mutation in QRDR of ParC gene and I460V mutation in QRDR of ParE gene showing efflux to ciprofloxacin, levofloxacin by agar dilution method
Streptococcus pneumoniae [7] = assay: Antibacterial activity against Streptococcus pneumoniae HMC 1073 harboring S81F mutation in quinolone-resistant determining regions of GyrA gene, and I460V mutation in QRDR of ParE gene by agar dilution method
Streptococcus pneumoniae [8] = assay: Antibacterial activity against penicillin-intermediate Streptococcus pneumoniae […] by agar dilution method
Streptococcus pneumoniae [9] = assay: Antibacterial activity against Streptococcus pneumoniae HMC 1151 harboring D83N, K137N mutation in quinolone-resistant determining regions of ParC gene and I460V mutation in QRDR of ParE gene showing efflux to ciprofloxacin, gemifloxacin by agar dilution method
Streptococcus pneumoniae [10] = assay: as §1, with “pneumoniae” for “pneumoniae HMC”, “gene” for “gene after 50 passages”
Streptococcus pneumoniae [11] = assay: Antibacterial activity against Streptococcus pneumoniae HMC 1078 harboring S81F mutation in quinolone-resistant determining regions of GyrA gene, S79F mutation in QRDR of ParC gene and I460V mutation in QRDR of ParE gene by agar dilution method
Streptococcus pneumoniae [12] = assay: Antibacterial activity against Streptococcus pneumoniae HMC 1156 harboring S81F and S79F mutation in quinolone-resistant determining regions of GyrA and ParC genes respectively showing efflux to ciprofloxacin, gemifloxacin by agar dilution method
Streptococcus pneumoniae [13] = assay: Antibacterial activity against macrolide-, quinolone-susceptible and penicillin-intermediate Streptococcus pneumoniae HMC 100 by broth microdilution method
Streptococcus pneumoniae [14] = assay: Antibacterial activity against penicillin-susceptible Streptococcus pneumoniae ATCC 49619 by agar dilution method
Streptococcus pneumoniae [15] = assay: Antibacterial activity against Streptococcus pneumoniae HMC 1139 harboring S81F mutation in quinolone-resistant determining regions of GyrA gene, S79F, K137N mutation in QRDR of ParC gene and I460V mutation in QRDR of ParE gene by agar dilution method
Streptococcus pneumoniae [16] = assay: (§2) Antibacterial activity against penicillin-resistant and quinolone-susceptible Streptococcus pneumoniae HMC 3583 expressing mefA and harboring S81F mutation in quinolone-resistant determining regions of GyrA gene, D83N mutation in QRDR of ParC gene and I460V mutation in QRDR of ParE gene after 44 passages with levofloxacin measured after 10 daily antibiotic-free subculturing by multi-step resistance selection technique
Streptococcus pneumoniae [17] = assay: Antibacterial activity against macrolide-, quinolone-susceptible and penicillin-intermediate Streptococcus pneumoniae HMC 99 by broth microdilution method
Streptococcus pneumoniae [18] = assay: Antibacterial activity against penicillin-, quinolone-resistant Streptococcus pneumoniae HMC 1541 harboring mutation in L4 protein by broth microdilution method
Streptococcus pneumoniae [19] = assay: Antibacterial activity against Streptococcus pneumoniae HMC 1077 harboring S81Y and S79F mutation in quinolone-resistant determining regions of GyrA and ParC genes respectively by agar dilution method
Streptococcus pneumoniae [20] = assay: Antibacterial activity against Streptococcus pneumoniae HMC 1071 harboring S81F mutation in quinolone-resistant determining regions of GyrA gene and S79F, K137N mutation in QRDR of ParC gene by agar dilution method
Streptococcus pneumoniae [21] = assay: Antibacterial activity against Streptococcus pneumoniae HMC 1541 harboring S81Y mutation in quinolone-resistant determining regions of GyrA gene, S79F, K137N mutation in QRDR of ParC gene and I460V mutation in QRDR of ParE gene by agar dilution method
Streptococcus pneumoniae [22] = assay: Antibacterial activity against penicillin-, macrolide- and quinolone-susceptible Streptococcus pneumoniae HMC 63 by broth microdilution method
Streptococcus pneumoniae [23] = assay: Antibacterial activity against Streptococcus pneumoniae HMC 1070 harboring S81F mutation in quinolone-resistant determining regions of GyrA gene, D83N mutation in QRDR of ParC gene and I460V mutation in QRDR of ParE gene by agar dilution method
Streptococcus pneumoniae [24] = assay: Antibacterial activity against quinolone-susceptible and penicillin-intermediate Streptococcus pneumoniae HMC 441 expressing ermB by broth microdilution method
Streptococcus pneumoniae [25] = assay: Antibacterial activity against Streptococcus pneumoniae HMC 2538 harboring S81Y mutation in quinolone-resistant determining regions of GyrA gene, S79F, K137N mutation in QRDR of ParC gene and I460V mutation in QRDR of ParE gene showing efflux to ciprofloxacin, levofloxacin, gatifloxacin by agar dilution method
Streptococcus pneumoniae [26] = assay: as §2, with “228” for “3583”, “ermB” for “mefA”, “S79Y” for “D83N”, “38” for “44”, “gatifloxacin” for “levofloxacin”
Streptococcus pneumoniae [27] = assay: Antibacterial activity against Streptococcus pneumoniae HMC 1150 harboring S81C mutation in quinolone-resistant determining regions of GyrA gene, S79F mutation in QRDR of ParC gene and I460V mutation in QRDR of ParE gene by agar dilution method
Streptococcus pneumoniae [28] = assay: Antibacterial activity against azithromycin-susceptible Streptococcus pneumoniae ATCC 49619 by agar dilution method
Streptococcus pneumoniae [29] = assay: Antibacterial activity against penicillin-, quinolone-resistant and macrolide-susceptible Streptococcus pneumoniae HMC 1058 harboring S79F, K137N mutation in quinolone-resistant determining regions of ParC gene and 460V mutation in QRDR of ParE gene by broth microdilution method
Streptococcus pneumoniae [30] = assay: Antibacterial activity against Streptococcus pneumoniae HMC 3041 after 50 passages by broth microdilution method
Streptococcus pneumoniae [31] = assay: as §1, with “penicillin-, macrolide-susceptible and” for “penicillin-susceptible,”, “1074” for “1072 expressing ermB and”, “S79F” for “S79Y”
Streptococcus pneumoniae [32] = assay: Antibacterial activity against penicillin-, macrolide- and quinolone-susceptible Streptococcus pneumoniae HMC 63 after 50 passages by broth microdilution method

Row | SMILES | MIC (Streptococcus pneumoniae [1]) [µg/mL] | MIC (Streptococcus pneumoniae [2]) [µg/mL] | MIC (Streptococcus pneumoniae [3]) [µg/mL] | MIC (Streptococcus pneumoniae [4]) [µg/mL] | MIC (Streptococcus pneumoniae [6]) [µg/mL] | MIC (Streptococcus pneumoniae [7]) [µg/mL] | MIC (Streptococcus pneumoniae [9]) [µg/mL] | MIC (Streptococcus pneumoniae [10]) [µg/mL] | MIC (Streptococcus pneumoniae [11]) [µg/mL] | MIC (Streptococcus pneumoniae [12]) [µg/mL] | MIC (Streptococcus pneumoniae [13]) [µg/mL] | MIC (Streptococcus pneumoniae [15]) [µg/mL] | MIC (Streptococcus pneumoniae [16]) [µg/mL] | MIC (Streptococcus pneumoniae [18]) [µg/mL] | MIC (Streptococcus pneumoniae [19]) [µg/mL] | MIC (Streptococcus pneumoniae [20]) [µg/mL] | MIC (Streptococcus pneumoniae [21]) [µg/mL] | MIC (Streptococcus pneumoniae [22]) [µg/mL] | MIC (Streptococcus pneumoniae [23]) [µg/mL] | MIC (Streptococcus pneumoniae [24]) [µg/mL] | other results
1 | CO/N=C1\CN(c2nc3c(cc2F)c(=O)c(C(=O)O)cn3C2CC2)CC1CN (stereo not given) [GEMIFLOXACIN] | 0.125 (≈ 0.321 µM) | 1 (≈ 2.57 µM) | 0.5 (≈ 1.28 µM) | 1 (≈ 2.57 µM) | 0.5 (≈ 1.28 µM) | 0.125 (≈ 0.321 µM) | 0.25 (≈ 0.642 µM) | 0.5 (≈ 1.28 µM) | 0.5 (≈ 1.28 µM) | 0.1 (≈ 0.257 µM) | 0.06 (≈ 0.154 µM) | 0.25 (≈ 0.642 µM) | 0.25 (≈ 0.642 µM) | 0.5 (≈ 1.28 µM) | 0.25 (≈ 0.642 µM) | 0.5 (≈ 1.28 µM) | 0.25 (≈ 0.642 µM) | 0.06 (≈ 0.154 µM) | 0.25 (≈ 0.642 µM) | 0.016 (≈ 0.0411 µM) | MIC (Streptococcus pneumoniae [5]): 0.03 µg/mL (≈ 0.077 µM); MIC50 (Streptococcus pneumoniae [8]): 0.03 µg/mL (≈ 0.077 µM); MIC90 (Streptococcus pneumoniae [8]): 0.06 µg/mL (≈ 0.154 µM); MIC50 (Streptococcus pneumoniae [14]): 0.03 µg/mL (≈ 0.077 µM); MIC90 (Streptococcus pneumoniae [14]): 0.12 µg/mL (≈ 0.308 µM); MIC (Streptococcus pneumoniae [17]): 0.06 µg/mL (≈ 0.154 µM); MIC (Streptococcus pneumoniae [25]): 0.25 µg/mL (≈ 0.642 µM); MIC (Streptococcus pneumoniae [26]): > 64 µg/mL; MIC (Streptococcus pneumoniae [27]): 0.25 µg/mL (≈ 0.642 µM); MIC50 (Streptococcus pneumoniae [28]): 0.03 µg/mL (≈ 0.077 µM); MIC90 (Streptococcus pneumoniae [28]): 0.25 µg/mL (≈ 0.642 µM); MIC (Streptococcus pneumoniae [29]): 0.12 µg/mL (≈ 0.308 µM); MIC (Streptococcus pneumoniae [30]): 0.03 µg/mL (≈ 0.077 µM)
2 | COc1c(N2C[C@@H]3CCCN[C@@H]3C2)c(F)cc2c(=O)c(C(=O)O)cn(C3CC3)c12 [MOXIFLOXACIN] | 4 (≈ 9.96 µM) | 4 (≈ 9.96 µM) | 4 (≈ 9.96 µM) | 4 (≈ 9.96 µM) | 4 (≈ 9.96 µM) | 2 (≈ 4.98 µM) | 0.25 (≈ 0.623 µM) | 4 (≈ 9.96 µM) | 4 (≈ 9.96 µM) | 4 (≈ 9.96 µM) | 0.25 (≈ 0.623 µM) | 4 (≈ 9.96 µM) | 4 (≈ 9.96 µM) | 4 (≈ 9.96 µM) | 4 (≈ 9.96 µM) | 4 (≈ 9.96 µM) | 2 (≈ 4.98 µM) | 0.25 (≈ 0.623 µM) | 4 (≈ 9.96 µM) | 0.12 (≈ 0.299 µM) | MIC (Streptococcus pneumoniae [31]): 8 µg/mL (≈ 19.9 µM); MIC (Streptococcus pneumoniae [32]): 0.25 µg/mL (≈ 0.623 µM); MIC (Streptococcus pneumoniae [25]): 2 µg/mL (≈ 4.98 µM); MIC (Streptococcus pneumoniae [26]): 4 µg/mL (≈ 9.96 µM); MIC (Streptococcus pneumoniae [27]): 1 µg/mL (≈ 2.49 µM); MIC (Streptococcus pneumoniae [29]): 2 µg/mL (≈ 4.98 µM); MIC (Streptococcus pneumoniae [30]): 0.25 µg/mL (≈ 0.623 µM)
